Converted amounts (≈) assume the structure as drawn. The source made the active and inactive calls. The rule behind the calls is not given here.
Experiments:
J774.A1 [1] = assay: Antiinflammatory activity against LPS-induced mouse J774.A1 cells assessed as inhibition of IL-6 release at 10 uM pretreated for 30 mins followed by LPS stimulation and measured after 24 hrs by ELISA relative to control; assay type: functional; settings: time 24.5 hrs
J774.A1 [2] = assay: Antiinflammatory activity against LPS-induced mouse J774.A1 cells assessed as inhibition of IL-6 release at 10 uM pretreated for 30 mins followed by LPS stimulation and measured after 24 hrs by ELISA; assay type: functional, cell-based; settings: time 24.5 hrs
J774.A1 [3] = assay: Cytotoxicity against mouse J774.A1 cells assessed as reduction in cell proliferation at 10 uM measured after 24 hrs by CCK-8 assay; assay type: toxicity, cell-based; settings: j774.a1, 24 h
[4] = Aqueous solubility of compound in phosphate buffer at pH 7.4 measured after 24 hrs by HPLC analysis; assay type: physicochemical
RAW264.7 [5] = assay: Antiinflammatory activity against LPS-induced mouse RAW264.7 cells assessed as inhibition of IL-6 release pretreated for 30 mins followed by LPS stimulation and measured after 24 hrs by ELISA; assay type: functional, cell-based
RAW264.7 [6] = assay: Antiinflammatory activity against LPS-induced mouse RAW264.7 cells assessed as inhibition of TNF-alpha release pretreated for 30 mins followed by LPS stimulation and measured after 24 hrs by ELISA; assay type: functional, cell-based
J774.A1 [7] = assay: Antiinflammatory activity against LPS-induced mouse J774.A1 cells assessed as inhibition of IL-6 release at 1.25 to 10 uM pretreated for 30 mins followed by LPS stimulation and measured after 24 hrs by ELISA; assay type: functional, cell-based; settings: dose 1.25-10 µM, time 24.5 hrs
J774.A1 [8] = assay: Antiinflammatory activity against LPS-induced mouse J774.A1 cells assessed as inhibition of TNF-alpha release at 1.25 to 10 uM pretreated for 30 mins followed by LPS stimulation and measured after 24 hrs by ELISA; assay type: functional, cell-based; settings: dose 1.25-10 µM, time 24.5 hrs
THP-1 [9] = assay: Antiinflammatory activity against LPS-induced PMA-differentiated human THP-1 cells assessed as inhibition of IL-6 release at 5 to 40 uM pretreated for 30 mins followed by LPS stimulation and measured after 24 hrs by ELISA; assay type: functional, cell-based; settings: dose 5-40 µM, time 24.5 hrs
THP-1 [10] = assay: Antiinflammatory activity against LPS-induced PMA-differentiated human THP-1 cells assessed as inhibition of TNF-alpha release at 5 to 40 uM pretreated for 30 mins followed by LPS stimulation and measured after 24 hrs by ELISA; assay type: functional, cell-based; settings: dose 5-40 µM, time 24.5 hrs
Mus musculus [11] = assay: Antiinflammatory activity against C57BL/6 mouse model of DSS induced ulcerative colitis assessed as reduction in IL-6 level in serum at 100 mg/kg, po administered daily for 10 days; assay type: functional, organism-based; settings: time 10.0 day
Mus musculus [12] = assay: Antiinflammatory activity against C57BL/6 mouse model of DSS induced ulcerative colitis assessed as reversal of weight loss at 100 mg/kg, po administered daily for 10 days; assay type: functional, organism-based; settings: time 10.0 day
Mus musculus [13] = assay: Antiinflammatory activity against C57BL/6 mouse model of DSS induced ulcerative colitis assessed as reversal of shortened intestinal length due to fecal obstruction at 100 mg/kg, po administered daily for 10 days; assay type: functional, organism-based; settings: time 10.0 day
Mus musculus [14] = assay: Antiinflammatory activity against C57BL/6 mouse model of DSS induced ulcerative colitis assessed as reduction in inflammatory cytokines infiltration in intestine at 100 mg/kg, po administered daily for 10 days by immunohistochemical staining based analysis; assay type: functional, organism-based; settings: time 10.0 day
Mus musculus [15] = assay: Antiinflammatory activity against C57BL/6 mouse model of LPS induced acute lung injury assessed as reduction in pulmonary edema by measuring reduction in lung wet/dry ratio at 20 mg/kg, po administered every 12 hrs for 3 times followed by LPS stimulation for 6 hrs starting from 30 mins post last dose; assay type: functional, organism-based; settings: time 42.5 hrs
Mus musculus [16] = assay: Antiinflammatory activity against C57BL/6 mouse model of LPS induced acute lung injury assessed as reduction in total number of cells in BALF at 20 mg/kg, po administered every 12 hrs for 3 times followed by LPS stimulation for 6 hrs starting from 30 mins post last dose; assay type: functional, organism-based; settings: time 42.5 hrs
Mus musculus [17] = assay: Antiinflammatory activity against C57BL/6 mouse model of LPS induced acute lung injury assessed as reduction in IL-6 level in BALF at 20 mg/kg, po administered every 12 hrs for 3 times followed by LPS stimulation for 6 hrs starting from 30 mins post last dose by ELISA; assay type: functional, organism-based; settings: time 42.5 hrs
Mus musculus [18] = assay: Antiinflammatory activity against C57BL/6 mouse model of LPS induced acute lung injury assessed as reduction in IL-6 level in serum at 20 mg/kg, po administered every 12 hrs for 3 times followed by LPS stimulation for 6 hrs starting from 30 mins post last dose by ELISA; assay type: functional, organism-based; settings: time 42.5 hrs
Mus musculus [19] = assay: Antiinflammatory activity against C57BL/6 mouse model of LPS induced acute lung injury assessed as reduction in IL-6 mRNA expression in lung at 20 mg/kg, po administered every 12 hrs for 3 times followed by LPS stimulation for 6 hrs starting from 30 mins post last dose by RT-qPCR analysis; assay type: functional, organism-based; settings: time 42.5 hrs
Mus musculus [20] = assay: Antiinflammatory activity against C57BL/6 mouse model of LPS induced acute lung injury assessed as reduction in TNF-alpha mRNA expression in lung at 20 mg/kg, po administered every 12 hrs for 3 times followed by LPS stimulation for 6 hrs starting from 30 mins post last dose by RT-qPCR analysis; assay type: functional, organism-based; settings: time 42.5 hrs

Compound	inhibition at 10 µM (J774.A1 [1])	other results
CC(C)=CCc1c(OCCN2CCN(C)CC2)ccc2ccc(=O)oc12	69%	–
CC(C)=CCc1c(OCCCN2CCOCC2)ccc2ccc(=O)oc12	69%	–
CC(C)=CCc1c(OCC2CC2)ccc2ccc(=O)oc12	64.2%	–
CC(C)=CCc1c(OCCN(C)C)ccc2ccc(=O)oc12	–	Activity (J774.A1 [2]): inactive
CC(C)=CCc1c(OCCN2CCCCC2)ccc2ccc(=O)oc12	10.6%	–
CC(C)=CCc1c(OCCCN2CCN(C)CC2)ccc2ccc(=O)oc12	81.9%	–
COc1cccc(COc2ccc3ccc(=O)oc3c2CC=C(C)C)c1	80.2%	–
CCN1CCN(C(=O)COc2ccc3ccc(=O)oc3c2CC=C(C)C)CC1	46%	–
CC(C)=CCc1c(OCCN2CCOCC2)ccc2ccc(=O)oc12	71.7%	–
CC(C)=CCc1c(OCC2CCCCC2)ccc2ccc(=O)oc12	88%	–
CCN1CCN(CCOc2ccc3ccc(=O)oc3c2CC=C(C)C)CC1	88.6%	–
CC(C)=CCc1c(OCc2cccc(F)c2)ccc2ccc(=O)oc12	68.8%	–
CC(C)=CCc1c(OCCN2CCCC2)ccc2ccc(=O)oc12	–	Activity (J774.A1 [2]): inactive
CC(C)=CCc1c(OCC2CCCO2)ccc2ccc(=O)oc12 (centres undefined)	82.5%	–
CC(C)=CCc1c(OCC(=O)Nc2ccccc2Br)ccc2ccc(=O)oc12	88.3%	Activity (J774.A1 [3]): Toxic
COc1ccc2ccc(=O)oc2c1CC=C(C)C [OSTHOLE]	–	solubility at 24 h [4]: 10 µg/mL (≈ 40.9 µM); IC50 (RAW264.7 [5]): 146 µM; IC50 (RAW264.7 [6]): 113 µM; Activity (J774.A1 [7]): inactive; Activity (J774.A1 [8]): inactive; Activity (THP-1 [9]): inactive; Activity (THP-1 [10]): inactive
CC(C)=CCc1c(OCCNCCN2CCOCC2)ccc2ccc(=O)oc12	46.8%	–
CC(C)=CCc1c(OCCCN2CCCC2)ccc2ccc(=O)oc12	63.3%	–
CC(C)=CCc1c(OCc2ccc(C)cc2)ccc2ccc(=O)oc12	88.7%	–
CC(C)=CCc1c(OCC(=O)NCCCN2CCOCC2)ccc2ccc(=O)oc12	21.5%	–
CCN1CCN(CCCOc2ccc3ccc(=O)oc3c2CC=C(C)C)CC1	92.2%	Activity (J774.A1 [3]): Toxic
Nc1ccc(O)c(C(=O)O)c1	–	Activity (Mus musculus [11]): Active; Activity (Mus musculus [12]): Active; Activity (Mus musculus [13]): Active; Activity (Mus musculus [14]): Active
CC(C)=CCc1c(OCc2cccc(C)c2)ccc2ccc(=O)oc12	77.9%	–
CC(C)=CCc1c(OCCCCN2CCN(C)CC2)ccc2ccc(=O)oc12	82.3%	–
CC(C)=CCc1c(OCCN2CCCC(C)C2)ccc2ccc(=O)oc12 (centres undefined)	31.4%	–
CC(C)=CCc1c(OCC2CO2)ccc2ccc(=O)oc12 (centres undefined)	82.3%	–
CC(C)=CCc1c(OCC(=O)Nc2ccccc2)ccc2ccc(=O)oc12	48.5%	–
C[C@@H]1C[C@H]2[C@@H]3CCC4=CC(=O)C=C[C@]4(C)[C@@]3(F)[C@@H](O)C[C@]2(C)[C@@]1(O)C(=O)CO	–	Activity (Mus musculus [15]): Active; Activity (Mus musculus [16]): Active; Activity (Mus musculus [17]): Active; Activity (Mus musculus [18]): Active; Activity (Mus musculus [19]): Active; Activity (Mus musculus [20]): Active

Source: ChEMBL document CHEMBL5505996, “Discovery of novel osthole derivatives exerting anti-inflammatory effect on DSS-induced ulcerative colitis and LPS-induced acute lung injury in mice” (Eur J Med Chem, 2024)
